Test results taken from patent EP1487434B1, “BOTANICAL EXTRACT COMPOSITIONS WITH ANTI-CANCER ACTIVITY COMPRISING ISOLIQUIRITIGENIN” (The Medical Research and Education Trust, priority 2002, dated 2003).
≈ marks a conversion by molar mass, not a printed value.

Columns and labels:
Assay type in all cases: cell-based
LNCaP cells = test: Cell cycle measurement by DNA content flow cytometry, LNCaP; conditions: two concentrations, 24-48 hours exposure
Experimental: (§1) The cells were washed with phosphate buffered saline (PBS) and fixed in ice-cold 70% ethanol. Aliquots of fixed cells were rehydrated in PBS and stained with 1.0 microgram/milliliter DAPI (4,6-diamidino-2-phenylindole from Eastman Kodak, Rochester, NY), and dissolved in 10 millimolar piperazine-N,N-bis-2-ethane-sulfonic acid buffer (Calbiochem, La Jolla, CA) containing 100 millimolar NaCl, 2mM MgCl2 and 0.1% Triton X-100 (Sigma) at pH 6.8 as previously described by Halicka et al. (H. D. Halicka, B. Ardelt, G. Juan, A. Mittelman, S. Chen, F. Traganos and Z. Darzynkiewicz, "Apoptosis and Cell Cycle Effects Induced by Extracts of the Chinese Herbal Preparation of PC SPES", International J. of Oncology (1997), 11: 437-448).
(§2) The cellular DNA content was measured with an ELITE ESP flow cytometer (Coulter Inc., F1.) using UV laser illumination. The multicycle program was used to deconvolute the DNA frequency histograms to estimate the frequency of cells in different phases of the cell cycle.

DU-145 = test: Cell cycle measurement by DNA content flow cytometry, DU-145; conditions: protocol of Example 3
Experimental: as §1, §2
A prolongation in the G2M phase leads to the suppression of DU-145 cell proliferation.

hERα = molecular target: T1, hERα (Homo sapiens, UniProt P03372); test: ERα-Luc reporter gene activation in transfected HEK 293 cells; conditions: 0 to 9 µg/ml, 20 hours
T1 construct: expressed in transfected cells; host or cells: HEK 293 cells (ATCC CRL-1573)
T1 sequence (P03372 whole entry): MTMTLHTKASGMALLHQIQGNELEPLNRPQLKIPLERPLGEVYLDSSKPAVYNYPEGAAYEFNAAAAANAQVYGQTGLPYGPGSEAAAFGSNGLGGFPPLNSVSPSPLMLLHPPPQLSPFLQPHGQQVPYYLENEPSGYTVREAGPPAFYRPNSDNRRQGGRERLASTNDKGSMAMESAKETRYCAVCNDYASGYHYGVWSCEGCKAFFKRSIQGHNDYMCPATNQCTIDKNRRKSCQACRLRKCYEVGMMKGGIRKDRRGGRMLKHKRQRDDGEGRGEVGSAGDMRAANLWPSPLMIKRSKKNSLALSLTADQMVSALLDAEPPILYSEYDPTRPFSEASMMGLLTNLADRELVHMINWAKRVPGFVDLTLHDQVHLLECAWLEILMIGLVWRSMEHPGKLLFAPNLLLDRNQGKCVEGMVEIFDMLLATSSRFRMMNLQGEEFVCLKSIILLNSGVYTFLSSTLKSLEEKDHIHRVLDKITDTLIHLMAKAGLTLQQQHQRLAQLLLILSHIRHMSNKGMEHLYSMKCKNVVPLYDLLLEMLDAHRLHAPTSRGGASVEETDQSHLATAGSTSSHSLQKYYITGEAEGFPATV
Source text: (§3) HEK 293 cells (ATCC CRL-1573) were transfected with an expression vector for hERα and hERβ respectively, and an ERE-LUC reporter gene (plus a TK-LUC reporter for normalization) following the protocol of Yoon et al ("Differential activation of wild-type and variant forms of estrogen receptor α by synthetic and natural estrogenic compounds using a promoter containing three estrogen-responsive elements", J. Steroid Biochem. & Molecular Biology (2000), 28: pages 25-32).

hERβ = molecular target: T2, hERβ (Homo sapiens, UniProt Q92731); test: ERβ-Luc reporter gene activation in transfected HEK 293 cells; conditions: for capability in activating ERβ-Luc reporter gene than the ERα-Luc reporter gene: ERβ-Luc versus ERα-Luc, 1200 min; for ERβ-Luc reporter gene activation: HEK 293 cells, 0 to 9 µg/ml, 20 hours
T2 construct: expressed in transfected cells; host or cells: HEK 293 cells (ATCC CRL-1573)
T2 sequence (Q92731 whole entry): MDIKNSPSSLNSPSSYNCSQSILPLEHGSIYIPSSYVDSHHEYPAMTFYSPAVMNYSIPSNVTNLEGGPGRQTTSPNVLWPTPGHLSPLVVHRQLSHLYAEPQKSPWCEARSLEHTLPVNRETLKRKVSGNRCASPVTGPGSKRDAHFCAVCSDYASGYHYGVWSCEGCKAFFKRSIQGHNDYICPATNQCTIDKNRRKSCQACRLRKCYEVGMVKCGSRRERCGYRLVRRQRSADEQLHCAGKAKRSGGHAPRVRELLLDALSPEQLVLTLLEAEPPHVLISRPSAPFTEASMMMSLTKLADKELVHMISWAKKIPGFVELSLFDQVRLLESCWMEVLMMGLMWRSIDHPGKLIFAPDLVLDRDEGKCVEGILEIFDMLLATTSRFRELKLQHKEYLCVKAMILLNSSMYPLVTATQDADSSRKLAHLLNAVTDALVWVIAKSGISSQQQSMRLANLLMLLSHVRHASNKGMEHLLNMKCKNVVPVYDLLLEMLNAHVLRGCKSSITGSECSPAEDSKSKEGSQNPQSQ
Source text: as §3

[1] = tested on: LNCaP (androgen-dependent) prostate cancer cells; test: MTT cell viability assay, LNCaP; conditions: Homo sapiens, 72 h, read-out: ED50 values from MTT Assay, LNCaP
Source text: (§4) Cancer cell lines: LNCaP, DU-145, and MCF-7 cells were purchased from the American Type Culture Collection. PTX 10, a taxol-resistant ovarian cancer cell line, was obtained from the Brander Cancer Research Laboratory, New York Medical College. Cells were maintained in RPMI 1640 culture media supplemented with 10% heat-inactivated FBS, 5 millimolar glutamine, 50 units/milliliter of penicillin G, and 50 […] of streptomycin. The cells were routinely seeded at 1X 10^5 cells/milliliter in T-75 flasks, allowed to attach overnight, then treated with the herbal extract. At different times, cells were harvested by trypsinization.
(§5) The MTT assay (MTT = 3-(4,5-dimethylthiazol-2-yl)-2,5-diphenyl tetrazolium bromide) was used to count viable cells. The assay reagents were purchased from Boehringer Mannheim (Roche Diagnosis Corp, Indianapolis, Indiana). […] The protocol for the cell , viability assay was provided by the manufacturer and modified in our laboratory as described below.
(§6) Prostate or breast (reference) cancer cells were seeded in 96 well microtiter plates at a concentration of 3x10^3 cells per well (MCF-7; breast cancer cells) or 6x10^3 cells per well (LNCaP or DU145; prostate cancer cells), in a volume of 100 microliters of cell culture medium. After 24 hours, 20 microliter aliquots of the compounds at various concentrations were added to the attached cells. […]

[2] = tested on: DU-145 (androgen-independent) prostate cancer cells; test: MTT cell viability assay, DU-145; conditions: Homo sapiens, DU-145, 72 h, read-out: ED50 values from MTT Assay, DU145
Source text: as §4, §5, §6

[3] = tested on: MCF-7 breast cancer cells; test: MTT cell viability assay, MCF-7; conditions: Homo sapiens, MCF7; concentration giving 50% inhibition of cancer cell growth, 72 hours, linear interpolation; read-out: ED50 values from MTT Assay, MCF7
Source text: as §4, §5, §6

[4] = tested on: PTX 10, a taxol resistant ovarian cancer cell line; test: MTT cell viability assay, PTX 10; conditions: PTX10, 72 h, read-out: ED50, PTX 10 (taxol resistant Ovarian cancer cell)

SMILES | effect on G1, S, and G2M phases of the LNCaP cell cycle (LNCaP cells) | effect on DU-145 cell cycle (DU-145) | ERα-Luc reporter gene activation (hERα) | capability in activating ERβ-Luc reporter gene than the ERα-Luc reporter gene (hERβ) | ERβ-Luc reporter gene activation (hERβ) | IC50 [1] | IC50 [2] | IC50 [3] | IC50 [4]
COc1c(O)cc(O)c2c(=O)cc(-c3ccccc3)oc12 [Wogonin, 5,7-dihydroxy-8-methoxy-flavone] | G1 phase arrest | prolonged the G2M phase | dose-responsive behavior | at least 10 times | dose-responsive behavior |  |  |  | 
O=C(/C=C/c1ccc(O)cc1)c1ccc(O)cc1O [isoliquiritigenin, 2',4,4'-trihydroxychalcone] | G2M phase arrest |  | dose-responsive behavior | at least 10 times | dose-responsive behavior | 3.51 µg/mL (≈ 13.7 µM) | 7.6 µg/mL (≈ 29.7 µM) | 3.25 µg/mL (≈ 12.7 µM) | 3.32 µg/mL (≈ 13 µM)
